# Assay results taken from PubChem BioAssay AID2202555 (NIEHS Division of Translational Toxicology (DTT)).
# Results filed as inconclusive are left out. Calls of active or inactive are those of the source. No rule for the calls is given here.
# Test system: rat and mouse 2-year carcinogenicity bioassay, tumor evidence
# Assay: Consolidated carcinogenicity assay summary data
# Excerpt: Cancer Evaluation Criteria
# The National Toxicology Program describes the results of individual experiments on a chemical agent and notes the strength of the evidence for conclusions regarding each study. […] Other organizations, such as the International Agency for Research on Cancer, assign a strength of evidence for conclusions based on an examination of all available evidence, including animal studies such as those conducted by the NTP, epidemiologic studies, and estimates of exposure. Thus, the actual determination of risk to humans from chemicals found to be carcinogenic in laboratory animals requires a wider analysis that extends beyond the purview of these studies.
# Five categories of evidence of carcinogenic activity are used in the Technical Report series to summarize the strength of evidence observed in each experiment: two categories for positive results (clear evidence and some evidence); one category for uncertain findings (equivocal evidence); one category for no observable effects (no evidence); and one category for experiments that cannot be evaluated because of major flaws (inadequate study). These categories of interpretative conclusions were first adopted in June 1983 and then revised on March 1986 for use in the Technical Report series to incorporate more specifically the concept of actual weight of evidence of carcinogenic activity. For each separate experiment (male rats, female rats, male mice, female mice), one of the following five categories is selected to describe the findings. These categories refer to the strength of the experimental evidence and not to potency or mechanism.
# For studies showing multiple chemical-related neoplastic effects that if considered individually would be assigned to different levels of evidence categories, the following convention has been adopted to convey completely the study results. In a study with clear evidence of carcinogenic activity at some tissue sites, other responses that alone might be deemed some evidence are indicated as "were also related" to chemical exposure. In studies with clear or some evidence of carcinogenic activity, other responses that alone might be termed equivocal evidence are indicated as "may have been" related to chemical exposure.
# When a conclusion statement for a particular experiment is selected, consideration must be given to key factors that would extend the actual boundary of an individual category of evidence. Such consideration should allow for incorporation of scientific experience and current understanding of long-term carcinogenesis studies in laboratory animals, especially for those evaluations that may be on the borderline between two adjacent levels. These considerations should include:
# - adequacy of the experimental design and conduct;
# - occurrence of common versus uncommon neoplasia;
# - progression (or lack thereof) from benign to malignant neoplasia as well as from preneoplastic to neoplastic lesions;
# - some benign neoplasms have the capacity to regress but others (of the same morphologic type) progress. At present, it is impossible to identify the difference. Therefore, where progression is known to be a possibility, the most prudent course is to assume that benign neoplasms of those types have the potential to become malignant;
# - combining benign and malignant tumor incidences known or thought to represent stages of progression in the same organ or tissue;
# - latency in tumor induction;
# - multiplicity in site -specific neoplasia;
# - supporting information from proliferative lesions (hyperplasia) in the same site of neoplasia or in other experiments (same lesion in another sex or species);
# - presence or absence of dose relationships;
# - statistical significance of the observed tumor increase;
# - concurrent control tumor incidence as well as the historical control rate and variability for a specific neoplasm;
# - survival-adjusted analyses and false positive or false negative concerns;
# - structure-activity correlations; and
# […]
smiles,measurement,setting,value
FC(F)(F)c1ccc(Cl)cc1,carcinogen call,Route (rodents): Inhalation,active; some evidence
CC(O)COC(C)(C)C (configuration not stated),carcinogen call,Route (rodents): Inhalation,active; equivocal evidence
OC(c1ccc(Cl)cc1)(c1ccc(Cl)cc1)C(Cl)(Cl)Cl,carcinogen call,Route (rodents): Dosed feed,active; no evidence
c1ccccc1,carcinogen call,Route (rodents): Gavage,active; clear evidence
C=CC(=C)C,carcinogen call,Route (rodents): Inhalation,active; clear evidence
COP(=O)(OC)OC=C(Cl)Cl,carcinogen call,"Route (rodents): Gavage, Second Route: Dosed Feed",active; some evidence
Nc1cc(S(=O)(=O)O)cc2cc(S(=O)(=O)O)c(N=Nc3ccc(-c4ccc(N=Nc5c(S(=O)(=O)O)cc6cc(S(=O)(=O)O)cc(N)c6c5O)cc4)cc3)c(O)c12,carcinogen call,Route (rodents): Dosed feed,active; clear evidence
Oc1c(Cl)c(Cl)c(Cl)c(Cl)c1Cl,carcinogen call,Route (rodents): Dosed feed,active; some evidence
Nc1cc(Cl)c(N)c(Cl)c1,carcinogen call,Route (rodents): Dosed feed,active; no evidence
O=C(O)c1cc(N=Nc2ccc(S(=O)(=O)Nc3ccccn3)cc2)ccc1O,carcinogen call,Route (rodents): Gavage,active; some evidence
C1CO1,carcinogen call,Route (rodents): Inhalation,active
Oc1ccc(O)cc1,carcinogen call,Route (rodents): Gavage,active; some evidence
CC(O)c1ccccc1 (configuration not stated),carcinogen call,Route (rodents): Gavage,active; some evidence
CC(CN1CC(=O)NC(=O)C1)N1CC(=O)NC(=O)C1 (configuration not stated),carcinogen call,Route (rodents): Interperitoneal,active; no evidence
Oc1cccc(O)c1O,carcinogen call,Route (rodents): Topical,active; no evidence
Nc1cc(Cl)cc(C(=O)O)c1Cl,carcinogen call,Route (rodents): Dosed feed,active; no evidence
O=[N+]([O-])c1ccc(Oc2ccc(Cl)cc2Cl)cc1,carcinogen call,Route (rodents): Dosed feed,active; no evidence
COC(=O)[C@H]1[C@H]2C[C@@H]3c4[nH]c5cc(OC)ccc5c4CCN3C[C@H]2C[C@@H](OC(=O)c2cc(OC)c(OC)c(OC)c2)[C@@H]1OC,carcinogen call,Route (rodents): Dosed feed,active; clear evidence
CCCC[C@@H](C)[C@@H](OC(=O)C[C@@H](CC(=O)O)C(=O)O)[C@H](C[C@@H](C)C[C@H](O)CCCC[C@@H](O)C[C@H](O)[C@H](C)N)OC(=O)C[C@@H](CC(=O)O)C(=O)O,carcinogen call,Route (rodents): Dosed feed,active; clear evidence
ClCC(Br)CBr (configuration not stated),carcinogen call,"Route (rodents): Inhalation, Second Route: Gavage",active; clear evidence
CCC1CO1 (configuration not stated),carcinogen call,Route (rodents): Inhalation,active; clear evidence
OCc1ccco1,carcinogen call,Route (rodents): Inhalation,active; some evidence
CNC(=S)N(C)C,carcinogen call,Route (rodents): Dosed feed,active; no evidence
CCCN(CCC)S(=O)(=O)c1ccc(C(=O)O)cc1,carcinogen call,Route (rodents): Gavage,active; no evidence
Oc1ccc2ccccc2c1N=Nc1ccccc1,carcinogen call,Route (rodents): Dosed feed,active; clear evidence
CC1=CC(C)(C)Nc2ccccc21,carcinogen call,Route (rodents): Topical,active; some evidence
c1ccncc1,carcinogen call,Route (rodents): Dosed water,active; some evidence
COC(=O)C(c1ccccc1)C1CCCCN1 (configuration not stated),carcinogen call,Route (rodents): Dosed feed,active; no evidence
CC(C)CCC[C@@H](C)[C@H]1CC[C@H]2[C@@H]3CC=C4C[C@@H](OC(=O)Cc5ccc(N(CCCl)CCCl)cc5)CC[C@]4(C)[C@H]3CC[C@]12C,carcinogen call,Route (rodents): Gavage,active; no evidence
O=Cc1ccc(CO)o1,carcinogen call,Route (rodents): Gavage,active; no evidence
Cc1ccc([N+](=O)[O-])cc1,carcinogen call,Route (rodents): Dosed feed,active; equivocal evidence
Nc1ccc(O)c([N+](=O)[O-])c1,carcinogen call,Route (rodents): Dosed feed,active; clear evidence
C=CC(=O)OCC(CC)(COC(=O)C=C)COC(=O)C=C,carcinogen call,Route (rodents): Topical,active; equivocal evidence
C=CCOC(=O)CC(C)C,carcinogen call,Route (rodents): Gavage,active; clear evidence
CCn1cc(C(=O)O)c(=O)c2ccc(C)nc21,carcinogen call,Route (rodents): Dosed feed,active; clear evidence
[P]#[In],carcinogen call,Route (rodents): Inhalation,active; clear evidence
C[C@]12C/C(=C/O)C(=O)C[C@@H]1CC[C@@H]1[C@@H]2CC[C@@]2(C)[C@H]1CC[C@]2(C)O,carcinogen call,Route (rodents): Gavage,active; equivocal evidence
O=[O+][O-],carcinogen call,Route (rodents): Inhalation,active; no evidence
C1CCOC1,carcinogen call,Route (rodents): Inhalation,active; some evidence
Brc1c(Br)c(Br)c(Oc2c(Br)c(Br)c(Br)c(Br)c2Br)c(Br)c1Br,carcinogen call,Route (rodents): Dosed feed,active; some evidence
Nc1ccc([N+](=O)[O-])cc1O,carcinogen call,Route (rodents): Gavage,active; some evidence
ClCC(Cl)Cl,carcinogen call,Route (rodents): Gavage,active; no evidence
OC(O)C(Cl)(Cl)Cl,carcinogen call,Route (rodents): Gavage,active
O=Nc1ccc(Nc2ccccc2)cc1,carcinogen call,Route (rodents): Dosed feed,active; clear evidence
ClC1(Cl)C2(Cl)C3(Cl)C4(Cl)C(Cl)(Cl)C5(Cl)C3(Cl)C1(Cl)C5(Cl)C24Cl (configuration not stated),carcinogen call,Route (rodents): Dosed feed,active; clear evidence
CC(C)=CCl,carcinogen call,Route (rodents): Gavage,active; clear evidence
NC(=O)NN=Cc1ccc([N+](=O)[O-])o1,carcinogen call,Route (rodents): Dosed feed,active; equivocal evidence
